Results as given in patent US6699494B2, “Pharmaceutical composition and method for treating premature labor” (Columbia Laboratories, Inc., priority 1997, dated 2004).
Read-outs that look alike come from different tables or passages of the source.

What was measured:
[1] = Single dose pharmacokinetic study of transvaginal terbutaline gel, serum terbutaline by GC-MS; type: in vivo, human
Experimental: The objective of this study was to assess the pharmacokinetic parameters of the terbutaline and polycarbophil composition following a single dose regimen comparing progressively increasing concentrations. This open-label study was conducted in ten healthy female volunteers with a mean age of 25±SD (Standard Deviation) of 3.93 years. This study consisted of a 30 day screening period and a 24 hour treatment period with a follow-up evaluation conducted two days after administration of the final dose. The drug was administered transvaginally at 9:00 a.m. A wash out period of at least one week as observed between each of the four doses of the drug. All subjects were given an estro-progestative pill, to ensure that all study participants were at the same point in their menstrual cycle. They began dosing on day 7 to 10 of their pill intake for the single dose study. Serum terbutaline concentrations were obtained from blood samples collected predosing on the mornings of treatment, at frequent intervals during the initial 24 hours post dose (0.5, 1, 1.5, 2, 4, 6, 8, 12, 24 hours) and at 48 hours post dose. Serum terbutaline concentrations were determined using gas chromatography-mass spectrometry. Pharmacokinetic parameters were computed using concentration-time data for each subject following intake of the last dose of investigational drug on the morning of study day 6. The following pharmacokinetic parameters were computed: area under the drug concentration-time curve from time 0 to time t (AUC0-t), where t is the time of the last measurable concentration; peak drug concentration (Cmax); time to peak drug concentration (tmax); steady state drug concentration (CSS); and, elimination half-life (t½).
All ten subjects completed the study for the 0.1%, 0.2%, and 0.4% (w/w) concentrations. For each dose, the onset of serum terbutaline concentrations occurred within 1 to 2 hours. (See FIG. 1 and Table 2 showing terbutaline concentrations for each tested dose). […] Concentrations were still detectable for up to 48 hours (mean±SEM (Standard Error of the Mean) of 113.11±32.25 pg/mL for the 0.4% concentration).
(§1) Both the single and multiple dose studies discussed in the preceding examples also evaluated the 0.8% w/w concentration. The average age±SD for the single and multiple dose studies at the 0.8 dose were 26±3.42 and 26±4.12, respectively. The pharmacokinetic parameters from the study follow in Tables 4 and 5.

[2] = Human ex vivo uterine perfusion model, vagina to uterus transfer of tritiated terbutaline; type: in vitro ADME
Experimental: This model verifies the preferential direct delivery of terbutaline from the vagina to the uterus. In this study, uteri obtained from women undergoing hysterectomies for benign diseases were immediately connected to an organ perfusion system in which temperature, CO2 concentration, uterine artery pressure and flow were maintained constant. A perfusion model was opened without recirculation. The direct transfer of terbutaline from the vagina to the uterus was analyzed by applying a mixture of tritiated [^3H] terbutaline and unlabeled terbutaline to the cuff of vaginal tissue remaining attached to the cervix after the hysterectomy. Tritiated terbutaline was only used for autoradiography analysis of sections of uterine tissue. The experiments were interrupted at predetermined time intervals after vaginal applications […]. At the end of the perfusion period, ^3H and ^14C radioactivity was measured in endometrial and myometrial samples. Tritiated water and ^14C dextran helped to determine that the extend of non-specific vagina to uterus transport (due to leaks of the system) was less than 10%. The myometrial extraction of terbutaline and its corresponding venous outflow during the 12 hour uterine perfusions are shown in FIG. 3 below. The ^3H terbutaline started to be recovered in the venous effluent uterine during the first 3 hours. Terbutaline flow was maximal at the 6th-9th hour and then decreased for up to 48 hours of perfusion. Terbutaline flow in the venous effluent uterine is the reflection of terbutaline exiting from the organ. Accumulation of tritiated terbutaline was maximal in the myometrium at 12 hours of perfusion. (Mean±SD of 18.40±3.40 ng/100 mg of tissue) and decreased slowly. Significant accumulation of ^3H terbutaline still remained at 48 hours of perfusion, with 20% of the original concentration present.

[3] = oral administration, cited from earlier work
[4] = terbutaline inhaler, dysmenorrhea; cited from earlier work
[5] = cited from earlier work
[6] = Side effects at the 0.8% dose in the single and multiple dose studies; type: in vivo, human; conditions: transvaginal gel
Excerpt: as §1
A number of patients in the study (40%), however, experienced side effects such as tachycardia at this dose. […] This dose can be a method of practicing the invention, but is certainly not the most preferred embodiment.

[7] = female, human, 0.1 % (w/w), 0.1% gel, serum, mean ± SEM, n=10
[8] = female, human, 0.2 % (w/w), 0.2% gel, serum, mean ± SEM, n=10
[9] = female, human, 0.4 % (w/w), 0.4% gel, serum, mean ± SEM, n=10
[10] = female, human, 0.8 % w/w, 0.8% gel, serum, mean ± SEM, n=8
[11] = ex vivo perfused uterus, vaginal application

## CC(C)(C)NCC(O)c1cc(O)cc(O)c1 (stereo not shown) [Terbutaline, 5-[2-[(1,1-dimethylethyl)amino]-1-hydroxyethyl]-1,3-benzenediol]
[1]
  time for which serum concentrations were still detectable: up to 48 hours
[1]; 0.1% gel, serum, mean ± SEM, n=10
  Css: 0.056 ± 0.041 ng/mL
[1]; 0.2% gel, serum, mean ± SEM, n=10
  Css: 0.191 ± 0.108 ng/mL
[1]; 0.8% gel, serum, mean ± SEM, n=8
  Css: 0.579 ± 0.3 ng/mL
[1]; [7]
  Cmax: 0.117 ± 0.059 ng/mL
  Tmax: 13 ± 6 h
[1]; female, human, 0.1 % (w/w), 0.1% gel, serum, mean ± SEM, n=10, read-out: AUC0 to 48
  AUC(0-t): 2.28 ± 1.84 ng·h/mL
[1]; female, human, 0.1 % (w/w), 0.1% gel, serum, mean ± SEM, n=10, read-out: t½ (converted)
  half-life: 18 ± 12 h
[1]; [8]
  Cmax: 0.297 ± 0.17 ng/mL
  Tmax: 13 ± 6 h
[1]; female, human, 0.2 % (w/w), 0.2% gel, serum, mean ± SEM, n=10, read-out: AUC0 to 48
  AUC(0-t): 8.01 ± 4.7 ng·h/mL
[1]; female, human, 0.2 % (w/w), 0.2% gel, serum, mean ± SEM, n=10, read-out: t½ (converted)
  half-life: 29 ± 15 h
[1]; [9]
  Cmax: 0.479 ± 0.149 ng/mL
  Tmax: 14 ± 7 h
[1]; female, human, 0.4 % (w/w), 0.4% gel, serum, mean ± SEM, n=10, read-out: AUC0 to 48
  AUC(0-t): 11.9 ± 5.28 ng·h/mL
[1]; female, human, 0.4 % (w/w), 0.4% gel, serum, mean ± SEM, n=10, read-out: t½ (converted)
  half-life: 24 ± 16 h
[1]; female, human, 0.8 % w/w gel, 0.8% gel, serum, mean ± SEM, n=8, read-out: AUC0 to 48
  AUC(0-t): 23.2 ± 13.5 ng·h/mL
[1]; [10]
  Cmax: 0.787 ± 0.434 ng/mL
  Tmax: 10 ± 3 h
[1]; female, human, 0.8 % w/w, 0.8% gel, serum, mean ± SEM, n=8, read-out: t½ (converted)
  half-life: 20 ± 7 h
[1]; female, human, serum, according to the dose administered (0.1%-0.4%), read-out: Mean t½ estimates
  half-life: 18 to 29 h
[1]; female, human, serum, other: transvaginal, 0.4 % (w/w), 0.4% concentration, mean±SEM
  concentration at 48 h: 0.113 ± 0.0323 ng/mL
[1]; for each dose (0.1%, 0.2%, 0.4%)
  onset of serum terbutaline concentrations: 1 to 2 h
[2]; after a single vaginal application
  time terbutaline lasted in the myometrium: over 48 hours
[2]; at 12 hours of perfusion, Mean±SD
  accumulation of tritiated terbutaline in the myometrium: 18.40±3.40 ng/100 mg of tissue
[2]; at 48 hours of perfusion
  3H terbutaline remaining, share of the original concentration: 20%
[2]; [11]
  time of maximal accumulation of tritiated terbutaline in the myometrium: 12 h
  time within which 3H terbutaline started to be recovered in the venous effluent: ≤ 3 h
[3]; extensive first-pass sulphation
  Bioavailability: 15 and 20%
[3]
  further decrease of bioavailability by concomitant food intake: 30%
[4]
  duration of the effect of each spray: ≥ 1 h
[5]; prior art
  known serum levels for toxicity: 3000 pg/mL
[5]; reported in prior art
  known serum threshold susceptible to trigger systemic adverse events such as tachycardia and tremor: 3,000-3,500 pg/mL
[6]
  patients who experienced side effects such as tachycardia: 40%
